Reference: patent publication US20260248731A1, “NON-VIRAL DELIVERY OF SMALL MOLECULE THERAPEUTICS” (BATTELLE MEMORIAL INSTITUTE, priority 2022, published 2026)

Tests used:
[1] = test system: macrophage-differentiated THP-1 cells; conditions: background statement; cited from earlier work
murine cancer models = conditions: systemic administration; cited from earlier work
RAW264.7 cells = assay: Cytokine release from RAW264.7 cells, multiplex cytometric bead array; format: cell-based, murine; conditions: 24 hours after treatment
Method: Talabostat mesylate (MedChemExpress; TLBST) was reconstituted to 10 mg/mL in deionized water and stored frozen. Prior to use, TLBST was thawed, incubated at 37° C. for 20 mins, and sonicated for 10 minutes. TLBST was serially diluted in pH 7.4, 40 mM Tris, 10 mM MgCl2 buffer to 5 mg/mL and 2.5 mg/mL. Free talabostat controls were prepared in triplicate by diluting and serially diluting the 10, 5, and 2.5 mg/mL TLBST stock in pH 7.4, 40 mM Tris-HCl, 10 mM MgCl2 buffer to generate free TLBST at 1.25, 0.625, and 0.3125 mg/mL. […]
RAW264.7 cells were seeded at 100,000 cells per well of a 96-well plate. […] Twenty-four hours following stimulation, cell culture supernatants were harvested and stored frozen until quantification of lactate dehydrogenase (LDH) by colorimetric enzymatic activity assay, and interleukin 1β (IL-1β), interleukin 18 (IL-18), and interferon β (IFNβ) by multiplex cytometric bead array assay. Percentage LDH release was calculated relative to the maximum LDH released from a lysed cells control. […] MTT signal derived from stimulated cells was quantified by colorimetric enzymatic activity assay. Percentage viability was calculated relative to the MTT signal measured in an untreated cells control. […]

[2] = test system: macrophage-differentiated THP-1 cells; conditions: background statement; cited from earlier work; remark: listed apart in the source

In the case of Talabostat mesylate [Free TLBST], the IL-1β release [1] is given as “exhibit both cytotoxicity and IL-1β release”, the “protection in murine cancer models” value (murine cancer models) is given as “potent T and NK cell-dependent protection” and the “IFNβ in the supernatant” value (RAW264.7 cells) is given as “but not free TLBST is associated with IFNβ secretion”. For the same substance, the cytotoxicity [2] was “exhibit both cytotoxicity and IL-1β release”.
